The numbers were not newly measured in patent US20260048144A1, “SECRETED RNA THERAPEUTICS FOR NUCLEAR DELIVERY” (H. Lee Moffitt Cancer Center and Research Institute, Inc., priority 2022, published 2026), which cites them from elsewhere.

For series [1] the following is noted: tested in humans; Di Stasi et al. 2011.
The conditions of series [2]: infused in thousands of lymphoma and rheumatoid arthritis patients.

Regarding `CC[C@H](C(=O)N1CCCC[C@H]1C(=O)O[C@H](CCc1ccc(OC)c(OC)c1)c1cccc(OCC(=O)NCCNC(=O)COc2cccc([C@@H](CCc3ccc(OC)c(OC)c3)OC(=O)[C@@H]3CCCCN3C(=O)[C@@H](CC)c3cc(OC)c(OC)c(OC)c3)c2)c1)c1cc(OC)c(OC)c(OC)c1` [AP1903], the “safety / adverse effects in humans” value in series [1] is “deemed safe without adverse effects”. Regarding Rituximab, in series [2], the side effect profile result is given as “favorable side effect profile”.
